Results as given in article PMC3512521, “Synthetic metabolic engineering-a novel, simple technology for designing a chimeric metabolic pathway” (Microbial Cell Factories, 2012).
Each block holds one compound with its values, some of them ahead of it.

Key:
Format in all cases: biochemical
[1] = biological target: T1, PFK (6-phosphofructokinase) (Thermus thermophilus, UniProt P21777); experiment: coupled assay, NAD+ reduction at […] nm; details: 0.1 mM substrate, 0.2 mM ATP, 5 mM MgCl2, 0.5 mM MnCl2, pH 7.0, 50 °C
T1 construct: gene pfkA; heat-treated lysate of recombinant E. coli; native form, untagged; Riken HB8 expression plasmid
T1 sequence (P21777 whole entry): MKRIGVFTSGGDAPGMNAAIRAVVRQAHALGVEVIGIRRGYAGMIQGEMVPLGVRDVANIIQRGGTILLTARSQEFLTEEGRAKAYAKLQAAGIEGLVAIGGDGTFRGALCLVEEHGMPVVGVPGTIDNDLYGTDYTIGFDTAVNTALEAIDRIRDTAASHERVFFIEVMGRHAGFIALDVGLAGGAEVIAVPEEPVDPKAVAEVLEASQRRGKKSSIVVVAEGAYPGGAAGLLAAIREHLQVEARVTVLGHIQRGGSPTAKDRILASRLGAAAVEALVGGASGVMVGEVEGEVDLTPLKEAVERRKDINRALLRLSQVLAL

[2] = biological target: T2, Thermus lactate dehydrogenase (LDH) (Thermus thermophilus, UniProt Q5SJA1); experiment: spectrophotometric NADH oxidation at […] nm; details: 0.2 mM pyruvate, 0.2 mM NADH, pH 7.0, 50 °C; inhibitor
T2 construct: heat-treated (70 °C, 30 min) lysate of recombinant E. coli; native form, untagged
T2 sequence (Q5SJA1 whole entry): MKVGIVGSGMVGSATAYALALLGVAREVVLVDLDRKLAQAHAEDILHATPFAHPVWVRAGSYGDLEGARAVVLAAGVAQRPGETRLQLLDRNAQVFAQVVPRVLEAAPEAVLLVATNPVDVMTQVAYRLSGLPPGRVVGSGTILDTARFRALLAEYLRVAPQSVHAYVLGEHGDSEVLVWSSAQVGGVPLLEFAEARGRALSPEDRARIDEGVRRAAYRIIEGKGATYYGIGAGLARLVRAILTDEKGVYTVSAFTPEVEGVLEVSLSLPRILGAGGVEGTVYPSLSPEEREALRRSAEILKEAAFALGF

[3] = biological target: T3, FBA (fructose-bisphosphate aldolase) (Thermus thermophilus, UniProt Q5SHF7); experiment: coupled assay, NAD+ reduction at […] nm; details: 0.1 mM substrate, 5 mM MgCl2, 0.5 mM MnCl2, pH 7.0, 50 °C
T3 construct: gene TTHA1773; heat-treated lysate of recombinant E. coli; native form, untagged; Riken HB8 expression plasmid
T3 sequence (Q5SHF7 1-305): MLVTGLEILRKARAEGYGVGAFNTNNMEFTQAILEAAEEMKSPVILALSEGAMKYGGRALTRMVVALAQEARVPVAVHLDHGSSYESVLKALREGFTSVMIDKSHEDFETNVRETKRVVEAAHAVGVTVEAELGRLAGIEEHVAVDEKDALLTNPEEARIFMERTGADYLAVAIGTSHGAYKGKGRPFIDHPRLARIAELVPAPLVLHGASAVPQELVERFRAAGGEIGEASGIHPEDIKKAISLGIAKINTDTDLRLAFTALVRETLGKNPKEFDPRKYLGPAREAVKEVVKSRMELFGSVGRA

[4] = biological target: T4, malate/lactate dehydrogenase (MLDH) (Thermus thermophilus, UniProt Q53W84); experiment: NADH oxidation at […] nm; details: 0.2 mM pyruvate, 0.2 mM NADH, 5 mM MgCl2, 0.5 mM MnCl2, pH 7.0, 50 °C
T4 construct: gene TTHB078; heat-treated lysate of recombinant E. coli; native form, untagged; Riken HB8 expression plasmid
T4 sequence (Q53W84 entry or part of it): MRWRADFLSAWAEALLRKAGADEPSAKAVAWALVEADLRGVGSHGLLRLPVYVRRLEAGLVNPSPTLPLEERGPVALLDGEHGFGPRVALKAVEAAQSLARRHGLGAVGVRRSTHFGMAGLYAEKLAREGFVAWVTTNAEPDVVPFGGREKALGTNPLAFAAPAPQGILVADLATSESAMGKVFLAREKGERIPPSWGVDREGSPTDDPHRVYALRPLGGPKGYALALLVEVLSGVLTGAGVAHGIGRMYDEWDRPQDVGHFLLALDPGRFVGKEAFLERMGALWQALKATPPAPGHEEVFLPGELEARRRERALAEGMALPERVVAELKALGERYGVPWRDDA

coupled assay, NAD+ reduction at 340 nm [1]: phosphorylation of F6P catalyzed by PFK
Structure (SMILES): Nc1ncnc2c1ncn2[C@@H]1O[C@H](COP(=O)(O)OP(=O)(O)OP(=O)(O)O)[C@@H](O)[C@H]1O [ATP]

% decrease in activity at 1 mM [2]: 95%
Structure (SMILES): NC(=O)c1ccc[n+]([C@@H]2O[C@H](COP(=O)(O)OP(=O)(O)OC[C@H]3O[C@@H](n4cnc5c(N)ncnc54)[C@H](O)[C@@H]3O)[C@@H](O)[C@H]2O)c1 [NAD^+]

Structure (SMILES): O=P(O)(O)OC[C@H]1OC(O)(COP(=O)(O)O)[C@@H](O)[C@@H]1O (stereo partly shown) [fructose-1,6-bisphosphate]
coupled assay, NAD+ reduction at 340 nm [3]: fructose-6-phosphate, fructose-1,6-bisphosphate, dihydroxyacetone phosphate

Structure (SMILES): CC(=O)C(=O)O [pyruvate]
NADH oxidation at 340 nm [4]: The enzyme was confirmed to show pyruvate reducing activity
